{
  "source": "paper PMC11845477",
  "about": "“Exploring the principles behind antibiotics with limited resistance” (Nature Communications, 2025)",
  "key": {"[1]": {"tested_on": "E. coli ATCC 25922 (SEN) and E. coli NCTC13846 (MDR)", "assay": "Adaptive laboratory evolution (ALE), relative MIC of evolved lines", "type": "cell-based, Escherichia coli", "method_in_brief": "(§1)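 Ten parallel populations per antibiotic–ancestor pair were evolved in MHB at 37 °C, starting near 50% growth-inhibiting drug. Every 72 h they were passaged into 0.5–2.5× increasing concentrations, keeping the highest-drug well with OD600 > 0.2.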"}, "[2]": {"tested_on": "A. baumannii ATCC 17978 (SEN) and A. baumannii ATCC BAA-1605 (MDR)", "assay": "Adaptive laboratory evolution (ALE), relative MIC of evolved lines", "type": "cell-based, Acinetobacter baumannii", "method_in_brief": "as §1"}, "[3]": {"conditions": "EC-SEN (Escherichia coli ATCC 25922), evolved line 4"}, "[4]": {"conditions": "EC-SEN (Escherichia coli ATCC 25922), evolved line 6"}, "[5]": {"conditions": "EC-SEN (Escherichia coli ATCC 25922), evolved line 8"}, "[6]": {"conditions": "EC-SEN (Escherichia coli ATCC 25922), evolved line 10"}, "[7]": {"conditions": "EC-SEN, Escherichia coli ATCC 25922, evolved line 2"}, "[8]": {"conditions": "AB-SEN (Acinetobacter baumannii ATCC 17978), evolved line 1"}, "[9]": {"conditions": "AB-SEN (Acinetobacter baumannii ATCC 17978), evolved line 2"}, "[10]": {"conditions": "AB-SEN (Acinetobacter baumannii ATCC 17978), evolved line 4"}, "[11]": {"conditions": "AB-SEN (Acinetobacter baumannii ATCC 17978), evolved line 6"}, "[12]": {"conditions": "AB-SEN (Acinetobacter baumannii ATCC 17978), evolved line 9"}},
  "note": "Where a SMILES comes first, the peptide text is derived from it. Bridges are numbered along the chain shown (N, C = ends). [ ]: non-standard residue; d: D form. The star is where a group is joined. X2 = CC[C@H](C)CCCCC(=O)*; Dab = NCC[C@H](N)C(=O)O",
  "data": [
    {"smiles": "CN(C)c1cc(CNCC(C)(C)C)c(O)c2c1C[C@H]1C[C@H]3[C@H](N(C)C)C(O)=C(C(N)=O)C(=O)[C@@]3(O)C(O)=C1C2=O", "note": "[Omadacycline]", "values": [
      {"measurement": "Relative MIC (log10)", "setting": "[1]; EC-SEN (Escherichia coli ATCC 25922), evolved line 1 adapted to the named antibiotic", "result": 0.9031},
      {"measurement": "Relative MIC (log10)", "setting": "[1]; EC-SEN (Escherichia coli ATCC 25922), evolved line 2 adapted to the named antibiotic", "result": 0.9031},
      {"measurement": "Relative MIC", "setting": "[1]; EC-SEN (Escherichia coli ATCC 25922), evolved line 3", "result": 4},
      {"measurement": "Relative MIC", "setting": "[1]; [3]", "result": 8},
      {"measurement": "Relative MIC", "setting": "[1]; EC-SEN (Escherichia coli ATCC 25922), evolved line 5", "result": 8},
      {"measurement": "Relative MIC (log10)", "setting": "[1]; EC-SEN (Escherichia coli ATCC 25922), evolved line 5 adapted to the named antibiotic", "result": 0.9031},
      {"measurement": "Relative MIC", "setting": "[1]; [4]", "result": 4},
      {"measurement": "Relative MIC (log10)", "setting": "[1]; EC-SEN (Escherichia coli ATCC 25922), evolved line 6 adapted to the named antibiotic", "result": 0.6021},
      {"measurement": "Relative MIC", "setting": "[1]; EC-SEN (Escherichia coli ATCC 25922), evolved line 7", "result": 2},
      {"measurement": "Relative MIC", "setting": "[1]; [5]", "result": 8},
      {"measurement": "Relative MIC", "setting": "[1]; EC-SEN (Escherichia coli ATCC 25922), evolved line 9", "result": 8},
      {"measurement": "Relative MIC (log10)", "setting": "[1]; EC-SEN (Escherichia coli ATCC 25922), evolved line 9 adapted to the named antibiotic", "result": 0.9031},
      {"measurement": "Relative MIC", "setting": "[1]; [6]", "result": 4},
      {"measurement": "Relative MIC", "setting": "[1]; EC-SEN ATCC 25922, evolved line 1, evolved line vs ancestor", "result": 8},
      {"measurement": "Relative MIC", "setting": "[1]; EC-SEN ATCC 25922, evolved line 2, evolved line vs ancestor", "result": 8},
      {"measurement": "Relative MIC", "setting": "[1]; EC-SEN ATCC 25922, evolved line 3, evolved line vs ancestor", "result": 4},
      {"measurement": "Relative MIC", "setting": "[1]; EC-SEN ATCC 25922, evolved line 4, evolved line vs ancestor", "result": 8},
      {"measurement": "Relative MIC", "setting": "[1]; EC-SEN ATCC 25922, evolved line 5, evolved line vs ancestor", "result": 8},
      {"measurement": "Relative MIC", "setting": "[1]; EC-SEN ATCC 25922, evolved line 6, evolved line vs ancestor", "result": 4},
      {"measurement": "Relative MIC", "setting": "[1]; EC-SEN ATCC 25922, evolved line 7, evolved line vs ancestor", "result": 2},
      {"measurement": "Relative MIC", "setting": "[1]; EC-SEN ATCC 25922, evolved line 8, evolved line vs ancestor", "result": 8},
      {"measurement": "Relative MIC", "setting": "[1]; EC-SEN ATCC 25922, evolved line 9, evolved line vs ancestor", "result": 8},
      {"measurement": "Relative MIC", "setting": "[1]; EC-SEN ATCC 25922, evolved line 10, evolved line vs ancestor", "result": 4},
      {"measurement": "Relative MIC", "setting": "[1]; EC-SEN, Escherichia coli ATCC 25922, evolved line 1", "result": 8},
      {"measurement": "Relative MIC", "setting": "[1]; [7]", "result": 8},
      {"measurement": "Relative MIC", "setting": "[2]; [8]", "result": 32},
      {"measurement": "Relative MIC (log10)", "setting": "[2]; AB-SEN (Acinetobacter baumannii ATCC 17978), evolved line 1 adapted to the named antibiotic", "result": 1.505},
      {"measurement": "Relative MIC", "setting": "[2]; [9]", "result": 64},
      {"measurement": "Relative MIC", "setting": "[2]; AB-SEN (Acinetobacter baumannii ATCC 17978), evolved line 3", "result": 64},
      {"measurement": "Relative MIC (log10)", "setting": "[2]; AB-SEN (Acinetobacter baumannii ATCC 17978), evolved line 3 adapted to the named antibiotic", "result": 1.806},
      {"measurement": "Relative MIC", "setting": "[2]; [10]", "result": 32},
      {"measurement": "Relative MIC", "setting": "[2]; AB-SEN (Acinetobacter baumannii ATCC 17978), evolved line 5", "result": 128},
      {"measurement": "Relative MIC", "setting": "[2]; [11]", "result": 128},
      {"measurement": "Relative MIC (log10)", "setting": "[2]; AB-SEN (Acinetobacter baumannii ATCC 17978), evolved line 6 adapted to the named antibiotic", "result": 2.107},
      {"measurement": "Relative MIC (log10)", "setting": "[2]; AB-SEN (Acinetobacter baumannii ATCC 17978), evolved line 7 adapted to the named antibiotic", "result": 1.806},
      {"measurement": "Relative MIC", "setting": "[2]; AB-SEN (Acinetobacter baumannii ATCC 17978), evolved line 8", "result": 64},
      {"measurement": "Relative MIC (log10)", "setting": "[2]; AB-SEN (Acinetobacter baumannii ATCC 17978), evolved line 8 adapted to the named antibiotic", "result": 1.806},
      {"measurement": "Relative MIC", "setting": "[2]; [12]", "result": 32},
      {"measurement": "Relative MIC", "setting": "[2]; AB-SEN (Acinetobacter baumannii ATCC 17978), evolved line 10", "result": 32},
      {"measurement": "Relative MIC", "setting": "[2]; AB-SEN ATCC 17978, evolved line 1, evolved line vs ancestor", "result": 32},
      {"measurement": "Relative MIC", "setting": "[2]; AB-SEN ATCC 17978, evolved line 2, evolved line vs ancestor", "result": 64},
      {"measurement": "Relative MIC", "setting": "[2]; AB-SEN ATCC 17978, evolved line 3, evolved line vs ancestor", "result": 64},
      {"measurement": "Relative MIC", "setting": "[2]; AB-SEN ATCC 17978, evolved line 4, evolved line vs ancestor", "result": 32},
      {"measurement": "Relative MIC", "setting": "[2]; AB-SEN ATCC 17978, evolved line 5, evolved line vs ancestor", "result": 128},
      {"measurement": "Relative MIC", "setting": "[2]; AB-SEN ATCC 17978, evolved line 6, evolved line vs ancestor", "result": 128},
      {"measurement": "Relative MIC", "setting": "[2]; AB-SEN ATCC 17978, evolved line 7, evolved line vs ancestor", "result": 64},
      {"measurement": "Relative MIC", "setting": "[2]; AB-SEN ATCC 17978, evolved line 8, evolved line vs ancestor", "result": 64},
      {"measurement": "Relative MIC", "setting": "[2]; AB-SEN ATCC 17978, evolved line 9, evolved line vs ancestor", "result": 32},
      {"measurement": "Relative MIC", "setting": "[2]; AB-SEN ATCC 17978, evolved line 10, evolved line vs ancestor", "result": 32},
      {"measurement": "Relative MIC", "setting": "[2]; AB-SEN, Acinetobacter baumannii ATCC 17978, evolved line 7", "result": 64}
    ]},
    {"smiles": "CC[C@H](C)CCCCC(=O)N[C@@H](CCN)C(=O)N[C@H](C(=O)N[C@@H](CCN)C(=O)N[C@H]1CCNC(=O)[C@H]([C@@H](C)O)NC(=O)[C@H](CCN)NC(=O)[C@H](CCN)NC(=O)[C@H](CC(C)C)NC(=O)[C@@H](Cc2ccccc2)NC(=O)[C@H](CCN)NC1=O)[C@@H](C)O", "note": "[Polymyxin B] (X2-[Dab]T[Dab][Dab][Dab][dF]L[Dab][Dab]T; lactam 4-C (inferred); N-terminus assumed)", "values": [
      {"measurement": "Relative MIC (log10)", "setting": "[1]; EC-MDR (Escherichia coli NCTC 13846), evolved line 2", "result": 1.505, "unit": "log10"},
      {"measurement": "Relative MIC (log10)", "setting": "[1]; EC-MDR (Escherichia coli NCTC 13846), evolved line 5", "result": 1.204, "unit": "log10"},
      {"measurement": "Relative MIC (log10)", "setting": "[1]; EC-MDR (Escherichia coli NCTC 13846), evolved line 10", "result": 1.204, "unit": "log10"},
      {"measurement": "Relative MIC (log10)", "setting": "[1]; EC-MDR, Escherichia coli NCTC 13846, evolved line 1", "result": 1.505, "unit": "log10"},
      {"measurement": "Relative MIC (log10)", "setting": "[1]; EC-MDR, Escherichia coli NCTC 13846, evolved line 6", "result": 1.204, "unit": "log10"},
      {"measurement": "Relative MIC (log10)", "setting": "[1]; [3]", "result": 2.107, "unit": "log10"},
      {"measurement": "Relative MIC (log10)", "setting": "[1]; [4]", "result": 2.107, "unit": "log10"},
      {"measurement": "Relative MIC (log10)", "setting": "[1]; [5]", "result": 2.107, "unit": "log10"},
      {"measurement": "Relative MIC (log10)", "setting": "[1]; [6]", "result": 2.107, "unit": "log10"},
      {"measurement": "Relative MIC (log10)", "setting": "[1]; [7]", "result": 2.107, "unit": "log10"},
      {"measurement": "Relative MIC (log10)", "setting": "[2]; AB-MDR (Acinetobacter baumannii ATCC BAA 1605), evolved line 4", "result": 3.0103, "unit": "log10"},
      {"measurement": "Relative MIC (log10)", "setting": "[2]; AB-MDR (Acinetobacter baumannii ATCC BAA 1605), evolved line 5", "result": 3.0103, "unit": "log10"},
      {"measurement": "Relative MIC (log10)", "setting": "[2]; AB-MDR (Acinetobacter baumannii ATCC BAA 1605), evolved line 6", "result": 3.0103, "unit": "log10"},
      {"measurement": "Relative MIC (log10)", "setting": "[2]; AB-MDR (Acinetobacter baumannii ATCC BAA 1605), evolved line 7", "result": 3.0103, "unit": "log10"},
      {"measurement": "Relative MIC (log10)", "setting": "[2]; AB-MDR (Acinetobacter baumannii ATCC BAA 1605), evolved line 9", "result": 3.0103, "unit": "log10"},
      {"measurement": "Relative MIC (log10)", "setting": "[2]; [8]", "result": 2.709, "unit": "log10"},
      {"measurement": "Relative MIC (log10)", "setting": "[2]; [9]", "result": 2.709, "unit": "log10"},
      {"measurement": "Relative MIC (log10)", "setting": "[2]; [10]", "result": 2.709, "unit": "log10"},
      {"measurement": "Relative MIC (log10)", "setting": "[2]; [11]", "result": 2.709, "unit": "log10"},
      {"measurement": "Relative MIC (log10)", "setting": "[2]; [12]", "result": 2.408, "unit": "log10"}
    ]}
  ]
}
